Laboratory results reported in paper PMC12079163 (Drug Development Research, 2025).

Key:
HDAC6 = molecular target: T1, HDAC6 (Homo sapiens, UniProt Q9UBN7); conditions: ref Zhou et al. [2019]; cited from earlier work
T1 sequence (Q9UBN7 1-1215): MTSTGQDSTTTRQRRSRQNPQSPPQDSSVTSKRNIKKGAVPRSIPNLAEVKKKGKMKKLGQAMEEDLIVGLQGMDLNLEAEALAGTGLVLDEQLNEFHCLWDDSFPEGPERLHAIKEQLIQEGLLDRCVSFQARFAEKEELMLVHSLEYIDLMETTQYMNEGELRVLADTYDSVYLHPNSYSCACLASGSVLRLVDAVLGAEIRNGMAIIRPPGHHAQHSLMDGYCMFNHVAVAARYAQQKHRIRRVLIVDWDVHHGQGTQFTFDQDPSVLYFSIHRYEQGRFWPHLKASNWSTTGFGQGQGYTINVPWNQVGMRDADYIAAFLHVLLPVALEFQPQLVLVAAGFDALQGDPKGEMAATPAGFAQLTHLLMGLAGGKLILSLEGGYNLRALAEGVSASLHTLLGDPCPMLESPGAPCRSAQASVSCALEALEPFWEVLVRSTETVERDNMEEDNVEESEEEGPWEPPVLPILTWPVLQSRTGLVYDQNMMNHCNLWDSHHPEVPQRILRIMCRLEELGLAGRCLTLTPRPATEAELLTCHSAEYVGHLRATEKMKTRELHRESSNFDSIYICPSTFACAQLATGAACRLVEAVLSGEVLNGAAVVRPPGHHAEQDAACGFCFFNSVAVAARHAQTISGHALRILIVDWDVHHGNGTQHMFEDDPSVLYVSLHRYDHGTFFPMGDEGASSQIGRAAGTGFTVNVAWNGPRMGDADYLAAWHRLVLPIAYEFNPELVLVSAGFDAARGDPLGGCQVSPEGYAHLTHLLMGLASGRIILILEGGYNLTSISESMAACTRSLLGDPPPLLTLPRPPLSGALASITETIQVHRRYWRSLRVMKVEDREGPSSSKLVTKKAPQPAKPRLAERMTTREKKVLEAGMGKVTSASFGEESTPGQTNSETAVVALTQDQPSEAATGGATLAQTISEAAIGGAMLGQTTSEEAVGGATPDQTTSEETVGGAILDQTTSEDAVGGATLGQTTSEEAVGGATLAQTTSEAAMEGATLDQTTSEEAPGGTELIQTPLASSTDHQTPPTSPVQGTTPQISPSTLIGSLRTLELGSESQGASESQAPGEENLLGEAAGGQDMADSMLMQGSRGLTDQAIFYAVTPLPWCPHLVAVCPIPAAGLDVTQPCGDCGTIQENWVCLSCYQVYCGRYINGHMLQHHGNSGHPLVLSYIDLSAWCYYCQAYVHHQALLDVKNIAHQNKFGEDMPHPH

[1] = Solubility under the assay conditions; assay type: physicochemical; conditions: HDAC, BCL‐2 and cell assays; data not reliable, not reported

Row | solubility under the assay conditions [1] | SMILES | selectivity for HDAC6 over HDAC1 (HDAC6)
1 |  | O=C(CCCCCCC(=O)Nc1ccccc1)NO [SAHA] | about threefold
2 | Limited solubility | CC1(C)CCC(CN2CCN(c3ccc(C(=O)NS(=O)(=O)c4ccc(NCC5CCN(c6c(F)cc(C(=O)NO)cc6F)CC5)c([N+](=O)[O-])c4)c(Oc4cnc5[nH]ccc5c4)c3)CC2)=C(c2ccc(Cl)cc2)C1 [AMC‐4‐101, 4‐(4‐(((4‐(N‐(2‐((1H‐pyrrolo[2,3‐b]pyridin‐5‐yl)oxy)‐4‐(4‐((4′‐chloro‐5,5‐dimethyl‐3,4,5,6‐tetrahydro‐[1,1′‐biphenyl]‐2‐yl)methyl)piperazin‐1‐yl)benzoyl)sulfamoyl)‐2‐nitrophenyl)amino)methyl)piperidin‐1‐yl)‐3,5‐difluoro‐N‐hydroxybenzamide] | 
